From PMC7177638 (International Journal of Molecular Sciences, 2020)

Assays:
[1] = Cyclic voltammetry, cathodic reduction potential in aqueous solution; format: physicochemical; details: values normalized vs. SCE; phosphate buffer pH 7.4, 5 mM NaCl, 5·10^−4 M complex, scan rate 0.020 V s^−1
Experimental: The electrochemical characterization of compounds 1–6, performed by using cyclic voltammetry (CV), was carried out with the aim of determining the cathodic reduction potentials in aqueous solution (Ep^c).
Cyclic voltammetry (CV) measurements were carried out with a potentiostat CHI 1230B (CH Instruments, Inc., Austin, TX, USA) in a standard three-electrode electrochemical cell. The working electrode was a glassy carbon (GC) electrode, the reference electrode was a KCl-saturated Ag/AgCl and the counter was a Pt sheet. The GC electrode was carefully polished with alumina powder, then rinsed with distilled water and dried, to obtain a reproducible surface for all the experiments. All the measurements, conducted in triplicate, were carried out in buffered aqueous solutions containing the Pt(IV) compound at a concentration of 5·10^−4 M in 10 mL phosphate buffer (PB, pH = 7.4, I = 0.1) and 5 mM NaCl as supporting electrolyte. A blank solution (without Pt(IV) complex) was also tested. All the peak potentials were measured with a scan rate of 0.020 V s^−1; the initial potential was chosen equal to the open-circuit potential and the scan direction was negative. All the CV plots were acquired after an equilibration time of 2 min in order to make the GC surface reproducible.

[2] = XPS Pt4f surface reduction of Pt(IV) to Pt(II) under X-ray irradiation; format: physicochemical; details: for % of Reduction: after 30 min irradiation, calculated from Pt(IV) abundances
Excerpt: The Pt(IV) complexes were also characterized by X-ray photoelectron spectroscopy (XPS) in order to obtain information on the surface chemical composition and on the platinum speciation. Despite the surface sensitivity of the technique (topmost 5–8 nm), the analysis on homogeneous samples provides useful information on the chemical environment of all detected elements. […] Two doublets were found: one is attributed to Pt(II) (BE Pt4f7/2 = 72.9 ± 0.2 eV and BE Pt4f5/2 = 76.2 ± 0.2 eV), while the second doublet is attributed to Pt(IV) (BE Pt4f7/2 = 75.6 ± 0.2 eV and BE Pt4f5/2 = 79.0 ± 0.2 eV).
The Pt(IV)/Pt(II) relative abundance varies from case to case; moreover, if the X-ray degradation is monitored after 30 min exposure to the X-ray beam, an increase of the Pt(II) relative abundance is observed (Figure 8b).
X-ray Photoelectron Spectroscopy (XPS) analyses were run on a PHI 5000 Versa Probe II Scanning XPS Microprobe spectrometer (ULVAC PHI Inc., Kanagawa, Japan). Measurements were carried out using a monochromatic Al Kα source (X-ray spot 200 μm) at a power of 50.3 W. Wide scan and detailed spectra (Pt4f, C1s, Cl2p, N1s, O1s) were acquired in Constant Analyzer Energy (CAE) mode with a pass energy of 117.40 and 29.35 eV, respectively. An electron gun was used for charge compensation (1.0 V, 20.0 μA). Due to the X-ray sensitivity of Pt(IV) complexes, the Pt4f spectral region was acquired first. X-ray degradation kinetics experiments were performed analyzing the same sample area after 30 min. Data processing was performed by using the MultiPak software v. 9.8.0.19.

[3] = test system: 2008 human ovarian cancer cells; test: MTT cytotoxicity test, 72 h; format: cell-based; details: 2008, MTT
Experimental: (§1) The in vitro cytotoxic activities of compounds 1–6 were assayed on a panel of human cancer cell lines containing examples of pancreatic (PSN-1), colon (HCT-15 and LoVo), cervical (A431), and ovarian (2008) cancers. Cisplatin and oxaliplatin were used as reference compounds and were tested under the same experimental conditions.
(§2) Human colon (HCT-15 and LoVo) and pancreatic (PSN-1) carcinoma cell lines were obtained from the American Type Culture Collection (ATCC, RocKville, MD). The 2008 human ovarian cancer cells were kindly provided by Prof. G. Marverti (Dept. of Biomedical Science of Modena University, Italy). Human cervical carcinoma (A431) cells were kindly provided by Prof. F. Zunino (Division of Experimental Oncology B, Istituto Nazionale dei Tumori, Milan, Italy). […] Cell lines were maintained in the logarithmic phase at 37 °C in a 5% carbon dioxide atmosphere using RPMI-1640 or F-12 culture medium (Euroclone) containing 10% fetal calf serum (Euroclone, Milan, Italy), antibiotics (50 units per mL penicillin and 50 μg mL^−1 streptomycin), and 2 mM L-glutamine.
(§3) The growth inhibitory effect toward the tumor cell lines was evaluated by the MTT test. Briefly, 3-8·10^3 cells/well, depending upon the growth characteristics of the cell lines, were seeded in 96-well microplates in growth medium (100 µL) and then incubated at 37 °C in a 5% carbon dioxide atmosphere. After 24 h, the medium was removed and replaced with a fresh one containing the compound to be tested at the appropriate concentration. Triplicate cultures were established for each treatment. After 72 h, each well was treated with 10 µL of a 5 mg·mL^−1 MTT (3-(4,5-dimethylthiazol-2-yl)-2,5-diphenyltetrazolium bromide) saline solution and, after 5 h of incubation, 100 µL of a sodium dodecylsulfate (SDS) solution in HCl 0.01 M were added. Following an overnight incubation, the inhibition of cell growth induced by the tested complexes was evaluated by measuring the absorbance of each well at 570 nm using a Bio-Rad 680 microplate reader (Bio-Rad Laboratories S.r.l., Segrate (MI), Italy).

[4] = test system: A431 human cervical carcinoma cells; test: MTT cytotoxicity test, 72 h; format: cell-based
Experimental: as §1, §2, §3

[5] = test system: HCT-15 human colon carcinoma cells; test: MTT cytotoxicity test, 72 h; format: cell-based; details: HCT-15, MTT
Experimental: as §1, §2, §3

[6] = test system: LoVo human colon carcinoma cells; test: MTT cytotoxicity test, 72 h; format: cell-based
Experimental: as §1, §2, §3

[7] = test system: PSN-1 human pancreatic carcinoma cells; test: MTT cytotoxicity test, 72 h; format: cell-based; details: PSN-1, MTT
Experimental: as §1, §2, §3

LoVo-OXP cancer cells = test: MTT cytotoxicity test, 72 h, oxaliplatin-resistant cells; format: cell-based, human; details: LoVo OXP
Excerpt: as §2, §3

[8] = test system: human A431 cancer cell spheroids; test: Cytotoxicity towards 3D spheroids, acid phosphatase (APH) assay; format: cell-based; details: A431 3D spheroids, 72 h, APH assay
Excerpt: The remarkable cell-killing effect observed against human A431 squamous cervical carcinoma two-dimensional (2D) cultured cells prompted us to evaluate the in vitro antitumor activity of compounds 1–6 on three-dimensional (3D) cell cultures. As opposed to 2D monolayer cultures, cells growing in 3D culture systems form spheroids that comprise cells in various stages. […] Such cellular heterogeneity resembles that of in vivo tumors, making 3D cell cultures more predictive than conventional 2D monolayer cultures in screening antitumor drugs.
Spheroid cultures were obtained by seeding 2.5 × 10^3 A431 cancer cells/well in a round bottom non-treated tissue culture 96 well-plate (Greiner Bio-one, Kremsmünster, Austria) in phenol red free RPMI-1640 medium (Sigma Chemical Co.) containing 10% fetal calf serum (FCS) and supplemented with 20% methyl cellulose stock solution.
An APH modified assay was used for determining cell viability in 3D spheroids, as previously described. IC50 values were calculated with a four parameter logistic (4-PL) model.

[9] = Stability in solution followed by 1H-NMR (solvent-assisted photoreduction); format: physicochemical; details: DMSO-d6, room temperature, not shielded from light
Excerpt: (5.4–6.5 ppm). Most likely, compound 4 underwent a solvent-assisted reduction process favored by light, as previously observed for similar compounds such as cis,trans,cis-[PtCl2(OH)2(cis-1,4-DACH)] [19, 20]. […] This reduction/solvation could also be observed in other solvents, such as D2O and CD3OD.
As for compound 4, the reduction is probably fostered by the presence of axial chlorido ligand(s).
The ^13C NMR signals are influenced by the asymmetry of the complex with respect to the equatorial plane with two peaks at 125.4 and 125.2 ppm for the vinylic carbons, two signals at 60.2 and 59.3 ppm for the methynic carbons, and two signals at 33.1 and 32.6 ppm for the methylenic carbons (Figure S10).

[10] = test system: panel of human tumor cell lines (A431, 2008, HCT-15, LoVo, LoVo OXP, LoVo MDR); details: cited from earlier work
LoVo OXP cells = details: cited from earlier work
[11] = test system: panel of human cancer cell lines (PSN-1, HCT-15, LoVo, A431, 2008); test: MTT cytotoxicity, average over the panel of human cancer cell lines; format: cell-based; details: mean over the cell line panel, 72 h
Experimental: as §1
[17, 30] Thus, the pharmacological activity decreases in the order 3 >> 1 ≈ 2 ≈ 4 > 5 > 6.
as §3

[12] = test system: cisplatin-resistant ovarian C13* cell line; parameters: method as in PMID 22788918; details: cited from earlier work
[13] = test system: oxaliplatin-resistant colon LoVo-OXP cell line; parameters: method as in PMID 22788918; details: cited from earlier work
[14] = logPo/w by shake-flask method with ICP-MS Pt determination; format: physicochemical; details: n-octanol / 0.15 M KCl in water

| Compound | Cathodic reduction potential Ep^c [1] [V] | % of Reduction [2] [%] | IC50 [3] [nM] | IC50 [4] [nM] | IC50 [5] [nM] | IC50 [6] [nM] | IC50 [7] [µM] | IC50 (LoVo-OXP cancer cells) [nM] | IC50 [8] [µM] | stability in solution (reduction to Pt(II) / solvation) [9] | ability to overcome oxaliplatin resistance (LoVo vs LoVo-OXP) [10] | cytotoxic activity compared with cisplatin and oxaliplatin ([10]; panel of human tumor cell lines) | lipid droplets formation (LoVo OXP cells) | IC50 [11] [µM] | activity against cell line [12] | activity against cell line [13] | logPo/w [14] | % Relative Abundance Pt(IV)/(II), After 30 min Irradiation ([2]; after 30 min X-ray irradiation) | % Relative Abundance Pt(IV)/(II), As Irradiated ([2]; onset of the experiment) |
| --- | --- | --- | --- | --- | --- | --- | --- | --- | --- | --- | --- | --- | --- | --- | --- | --- | --- | --- | --- |
| NC1CC=CCC1N.O=C1[O][Pt]([Cl])([Cl])[O]C1=O (racemic) [Complex 4, cis,trans,cis-[Pt(OXA)Cl2(DACHEX)]] | −0.72 | 67 | 420 ± 100 | 430 ± 200 | 1170 ± 200 | 390 ± 30 | 3.08 ± 1.1 | > 2000 | 9.9 ± 2.6 | quite unstable | – | – | – | – | – | – | – | – | – |
| NC1CC=CCC1N.O=C1[O][Pt][O]C1=O (racemic) [[Pt(OXA)(DACHEX)]] | – | – | – | – | – | – | – | – | – | – | equally active | better than that of cisplatin and comparable to or better than that of oxaliplatin | induced lipid droplets formation | – | – | – | – | – | – |
| [NH2][Pt]([NH2])([Cl])[Cl] [CDDP, cisplatin, reference compound] | – | – | 2230 ± 100 | 1430 ± 400 | 15300 ± 2600 | 7600 ± 1500 | 16.6 ± 4.2 | – | 58.3 ± 0.9 | – | – | – | – | 8.6 | – | – | – | – | – |
| CC(=O)[O][Pt]1([O]C(C)=O)[O]C(=O)C(=O)[O]1.NC1CC=CCC1N [Complex 2, cis,trans,cis-[Pt(OXA)(AcO)2(DACHEX)]] | −1.03 | 65 | 330 ± 500 | 550 ± 100 | 1270 ± 500 | 590 ± 100 | 2.85 ± 0.7 | > 2000 | 3.4 ± 0.9 | – | – | – | – | – | – | – | – | – | – |
| NC1CCC(N)CC1.[Cl][Pt+2][Cl] (stereo not drawn) [Kiteplatin, [PtCl2(cis-1,4-DACH)]] | – | – | – | – | – | – | – | – | – | – | – | – | – | – | active | active | – | – | – |
| O=C1[O][Pt]2([NH][C@@H]3CCCC[C@H]3[NH]2)[O]C1=O [OXP, oxaliplatin, reference compound] | – | – | 1530 ± 900 | 3800 ± 1300 | 1150 ± 400 | 1100 ± 600 | 7.9 ± 3.5 | 14300 ± 2100 | 36.3 ± 1.2 | – | – | – | – | 3.1 | – | – | – | – | – |
| cis,trans,cis-[Pt(OXA)(OH)2(DACHEX)] [Complex 1] | −1.05 | 44 | 720 ± 100 | 490 ± 200 | 440 ± 100 | 840 ± 300 | 3.15 ± 0.8 | > 2000 | 5.8 ± 0.8 | – | – | – | – | – | – | – | −3.05 | 48/52 | 86/14 |
